Several values for one entry are separate records, joined by “and”; a condition that tells them apart may be missing. Identical values can stand only once. Entries after “also recorded” stand apart in the source; their conditions may differ. Like-named read-outs stand apart in the source and are kept apart here.
Assays:
[1] = tested on: CT (control hiPS-CMs without RA, ventricular-like); assay: High-throughput membrane potential recording (FluoVolt, FDSS/μCell) in CT; assay type: cell-based, human; conditions: for Falling Slope / PWD30cF / PWD80cF / Rising Slope: % change from value before compound addition, 10 min after addition (Bay K 8644: 3 min)
Method: (§1) Using a high-throughput screening system (FDSS/μCell), we assessed the drug toxicity of several experimental drugs on hiPS-derived atrial myocytes as well as control hiPS-derived cardiomyocytes. Membrane potential was used as one of the parameters during the assessment.
(§2) After purification, hiPS-derived cardiomyocytes were plated in 96-well plates for downstream drug response assessment using FluoVolt™ Membrane Potential Kit. […] The comparison of variance in the response of drug administration in CT and AM was represented by the percentage of changes based on their baseline values respectively.
(§3) FluoVolt™ Membrane Potential Kit (ThermoFisher […], F10488, Massachusetts, United States) was used to measure membrane potentials. The basic procedure was performed in accordance with the manufacturer’s instructions. […] MP were recorded at excitation and emission stages at wavelengths of 470 and 540 nm, respectively. […] Stock solutions of the test compounds were prepared in 100% DMSO, and serially diluted 1/40 into compound plates for testing (0.5% DMSO was the maximum concentration in all wells). The compounds were automatically pipetted from the compound plate, and 12 μL was loaded in the wells already containing the cells with 48 μL of media. Recording data were analyzed using Waveform Analysis of Cardiomyocyte Software (Ver.1.2.1J, Hamamatsu Photonics K.K.). Data values for a well were averaged from waveforms that arose during 30 s. The beat rate (BR; beats per minute), waveform amplitude (AMP), and duration at 30, 50, and 80% of decay (PWD30, PWD 50, and PWD 80, respectively) were used as evaluation parameters. PWDs were corrected using the Fridericia formula. PWD30-80 was calculated as the difference between PWD80 and PWD30. Each parameter was calculated as percentage change (%) from the value before test compound addition.

[2] = tested on: AM (RA-treated hiPS-CMs, atrial-like); assay: High-throughput membrane potential recording (FluoVolt, FDSS/μCell) in AM; assay type: cell-based, human; conditions: for cessation of beating (cases): count of cases; for rising slope of membrane potential (in words): concentration range as stated in the source
Method: as §1, §2, §3

[3] = tested on: cardiac Na+ channel (Nav1.5); conditions: cited from earlier work
[4] = tested on: ventricular myocytes of guinea pigs; design: method as in Delaunois et al., 2015; conditions: 75 μM; ref Delaunois et al., 2015; cited from earlier work
[5] = tested on: human atrial myocytes; design: method as in Lagrutta et al., 2006; conditions: ref Lagrutta et al., 2006; cited from earlier work
[6] = tested on: Cav1.2 current; design: method as in Kramer et al., (2013), Harmer et al., (2011); conditions: ref Kramer et al., (2013), Harmer et al., (2011); cited from earlier work
[7] = tested on: ventricular function and porcine ventricular myocytes; design: method as in Knobloch et al., 2002; conditions: ref Knobloch et al., 2002; cited from earlier work
[8] = tested on: atrial refractory period; design: method as in Knobloch et al., 2002; conditions: ref Knobloch et al., 2002; cited from earlier work
[9] = concentration range as stated in the source
[10] = % change from value before compound addition, 10 min after addition (Bay K 8644: 3 min)

Which “amplitude of membrane potential (in words)” value [1] does the source give for `NC(=O)N1c2ccccc2C=Cc2ccccc21` [Carbamazepine] here?
The value was “decrease”.

And the “concentration at which cessation of beating was elicited” value [1]?
Its value is “above 30 μM”.

And the “concentration at which irregular beating or EAD appeared” value [1]?
Its value is “above 30 μM”.

What about the “membrane potential duration (in words)” value [1] of the same molecule?
The value was “shortened”.

And the “incidence of arrhythmia-like waveforms: arrest” value (“incidence … arrest” below) ([1]; 30 μM)?
The value was 8%.

And the “incidence of arrhythmia-like waveforms: irregular beat” value ([1]; 30 μM)?
The value was 25%.

And the “incidence … arrest” value ([1]; 100 μM)?
Its value is 92%.

And the “incidence of arrhythmia-like waveforms: irregular beat” value ([1]; 100 μM)?
Its value is 8%.

What about the “cessation of beating (cases)” value ([1]; 100 μM, count of cases) of the same molecule?
The value was 11 of 12.

What about the “Falling Slope” value [1] of the same molecule?
The value was “↑”.

What about the PWD30cF [1] of the same molecule?
The PWD30cF was “↓”.

And the PWD80cF [1]?
Its PWD80cF is “↓”.

And the “Rising Slope” value [1]?
The value was “↓”.

And the “beating rate (in words)” value [1, 9]?
Its value is “decrease”.

What about the “falling slope of membrane potential (in words)” value [1, 9] of the same molecule?
Its value is “increase”.

And the “rising slope of membrane potential (in words)” value (“rising slope … (in words)” below) [1, 9]?
The value was “decrease”.

What about the “other parameters of membrane potential (in words)” value [2] of the same molecule?
Its value is “no obvious change was observed”.

And the “incidence … arrest” value ([2]; 30 μM)?
Its value is 50%.

And the “cessation of beating (cases)” value ([2]; 30 μM)?
Its value is “half the cases”.

And the “incidence … arrest” value ([2]; 100 μM)?
Its value is 83%.

What about the “cessation of beating (cases)” value ([2]; 100 μM) of the same molecule?
The value was 5 of 6.

What about the “Rising Slope” value [2, 10] of the same molecule?
Its value is “↓”.

And the “rising slope … (in words)” value [2]?
The value was “decrease”.

And the IC50 ([3]; ref Harmer et al., 2011, read-out: IC50 cardiac Na+ channel (Nav1.5))?
Its IC50 is 152 µM.

What about the APD50 [4] of the same molecule?
The APD50 was “shortening”.

What about the APD90 [4] of the same molecule?
The APD90 was “shortening”.

What about the Vmax [4] of the same molecule?
The Vmax was “decrease”.

Which results are given for `CC(C)[C@@H]1CC[C@@H](C)C[C@@H]1P(=O)(c1ccccc1)c1ccccc1` [DPO-1]?
PWD30cF (in words) [2]: dose-dependent increases; also recorded: prolongation; PWD50cF (in words) [2]: dose-dependent increases; also recorded: prolongation; PWD30cF [2, 10]: ↑; action potentials in human atrial myocytes [5]: prolongation of action potentials

Which “concentration at which cessation of beating was elicited” value [1] does the source give for `O=C1NC(=O)C(c2ccccc2)(c2ccccc2)N1` [Phenytoin] here?
The value was “higher than 30 μM”.

What about the “membrane potential duration (in words)” value [1] of the same molecule?
The value was “slight shortening”.

What about the “incidence … arrest” value ([1]; 30 μM) of the same molecule?
The value was 83%.

And the “incidence … arrest” value ([1]; 100 μM)?
Its value is 100%.

And the “Falling Slope” value [1]?
Its value is “↑”.

What about the “Rising Slope” value [1] of the same molecule?
Its value is “↓”.

What about the “falling slope of membrane potential (in words)” value [1, 9] of the same molecule?
Its value is “increase”.

What about the “rising slope … (in words)” value [1, 9] of the same molecule?
Its value is “dose-dependent decrease”.

What about the “incidence … arrest” value ([2]; 10 μM) of the same molecule?
Its value is 50%.

And the “incidence … arrest” value ([2]; 30 μM)?
The value was 67%.

What about the “incidence … arrest” value ([2]; 100 μM) of the same molecule?
The value was 100%.

What about the “Rising Slope” value [2, 10] of the same molecule?
The value was “↓”.

And the “rising slope … (in words)” value [2]?
The value was “dose-dependent decrease”.

What about the IC50 ([3]; ref Kramer et al., (2013), Harmer et al., (2011), read-out: IC50 cardiac Nav1.5 current) of the same molecule?
The IC50 was 72.4 µM and 121 µM.

What about the IC50 [6] of the same molecule?
Its IC50 is 21.9 µM.

Which results are given for `O=C(NCc1ccccc1-c1ccccc1C(=O)NCCc1ccccn1)OCc1ccccc1` [S9947]?
amplitude of membrane potential (in words) [1]: decrease; incidence of arrhythmia-like waveforms: arrest ([1]; 10 μM): 50%; cessation of beating / arrest (cases) ([1]; 10 μM, count of cases): half; Falling Slope [1]: ↑; PWD30cF [1]: ↓; PWD80cF [1]: ↓; Rising Slope [1]: ↓; PWD30cF (in words) [2]: prolongation; PWD50cF (in words) [2]: prolongation; membrane potential duration (in words) [2]: dose-dependent increase; incidence of arrhythmia-like waveforms: arrest ([2]; 10 μM): 100%; cessation of beating / arrest (cases) ([2]; 10 μM, count of wells): All; PWD30cF [2, 10]: ↑; PWD80cF [2, 10]: ↑; ventricular function and porcine ventricular myocytes [7]: did not affect; atrial refractory period [8]: prolonged

Reference: PMC8369502, “High-Throughput Drug Screening System Based on Human Induced Pluripotent Stem Cell-Derived Atrial Myocytes ∼ A Novel Platform to Detect Cardiac Toxicity for Atrial Arrhythmias” (Frontiers in Pharmacology, 2021)
